Results from US11882834B2, “Microbiocidal thiazole derivatives” (SYNGENTA PARTICIPATIONS AG, priority 2017, dated 2024).

Assays:
[1] = system: Mycosphaerella arachidis (Cercospora arachidicola); assay: Mycosphaerella arachidis (Cercospora arachidicola) / liquid culture (early leaf spot); format: cell-based; details: 200 ppm in the formulation; liquid culture (PDB), growth determined photometrically 4-5 days after application; compared to untreated
Procedure: Mycosphaerella arachidis (Cercospora arachidicola)/Liquid Culture (Early Leaf Spot) Conidia of the fungus from cryogenic storage are directly mixed into nutrient broth (PDB potato dextrose broth). After placing a (DMSO) solution of test compound into a microtiter plate (96-well format), the nutrient broth containing the fungal spores is added. The test plates are incubated at 24° C. and the inhibition of growth is determined photometrically 4-5 days after application.

[2] = system: Phaeosphaeria nodorum (Septoria nodorum); assay: Phaeosphaeria nodorum (Septoria nodorum) / wheat / leaf disc preventative (glume blotch); format: in vivo; details: 200 ppm in the formulation, wheat leaf segments cv. Kanzler, compared to untreated, 5-7 days after application
Procedure: Phaeosphaeria nodorum (Septoria nodorum)/Wheat/Leaf Disc Preventative (Glume Blotch) Wheat leaf segments cv. Kanzler are placed on agar in a multiwell plate (24-well format) and sprayed with the formulated test compound diluted in water. The leaf disks are inoculated with a spore suspension of the fungus 2 days after application. The inoculated test leaf disks are incubated at 20° C. and 75% rh under a light regime of 12 h light/12 h darkness in a climate cabinet and the activity of a compound is assessed as percent disease control compared to untreated when an appropriate level of disease damage appears in untreated check leaf disks (5-7 days after application).

In the case of `Cc1sc(Nc2cc(F)nc(F)c2)nc1C(=O)NC1CCC1(C)C` (centres unmarked) [Compound I.r.19, 2-[(2,6-difluoro-4-pyridyl)amino]-N-(2,2-dimethylcyclobutyl)-5-methyl-thiazole-4-carboxamide], the disease control [1] is reported as “at least 80%” and the disease control [2] is reported as “at least 80%”.
